The record followed here is ChEMBL document CHEMBL1201862, “PubChem BioAssay data set” (2004).

The target of assay [1] is T1, Tyrosine-protein phosphatase non-receptor type 22 (Homo sapiens, UniProt Q9Y2R2).
T1 sequence (Q9Y2R2 whole entry): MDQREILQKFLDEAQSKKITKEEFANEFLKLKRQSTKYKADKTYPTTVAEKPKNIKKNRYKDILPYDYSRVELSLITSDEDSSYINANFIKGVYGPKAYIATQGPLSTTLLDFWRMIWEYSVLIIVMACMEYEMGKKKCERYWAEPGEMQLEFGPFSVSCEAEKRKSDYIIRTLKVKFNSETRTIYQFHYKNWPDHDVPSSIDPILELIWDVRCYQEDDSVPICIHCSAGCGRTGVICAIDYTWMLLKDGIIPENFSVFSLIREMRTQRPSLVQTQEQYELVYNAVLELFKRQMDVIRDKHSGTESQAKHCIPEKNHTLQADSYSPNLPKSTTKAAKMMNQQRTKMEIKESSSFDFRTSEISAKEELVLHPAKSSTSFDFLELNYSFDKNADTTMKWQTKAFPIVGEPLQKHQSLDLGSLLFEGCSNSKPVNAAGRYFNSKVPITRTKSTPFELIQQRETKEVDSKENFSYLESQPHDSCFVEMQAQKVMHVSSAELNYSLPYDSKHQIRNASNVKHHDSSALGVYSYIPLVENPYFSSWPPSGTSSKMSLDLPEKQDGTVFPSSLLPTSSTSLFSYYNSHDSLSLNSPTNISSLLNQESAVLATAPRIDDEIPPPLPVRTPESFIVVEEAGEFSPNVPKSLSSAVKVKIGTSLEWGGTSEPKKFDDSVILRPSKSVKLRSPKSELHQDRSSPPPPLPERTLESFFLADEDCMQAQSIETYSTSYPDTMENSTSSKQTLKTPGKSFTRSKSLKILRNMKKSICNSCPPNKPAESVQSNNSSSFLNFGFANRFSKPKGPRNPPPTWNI
As to the kind of experiment: PTPN22 enzyme inhibitors – biochemical, fluorescence, LYP catalytic domain, selectivity assay for LMPTP inhibitor project, dose response (AID 652006). The assay is classed as functional. The settings on record: read-out: IC50_Mean.

The target in assay [2] is Low molecular weight phosphotyrosine protein phosphatase (Homo sapiens, UniProt P24666). The assay is classed as functional. To be noted: read-out: IC50_Mean.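 Also: Dose-response confirmation assay measuring inhibition of LMPTP enzyme activity by fluorescence intensity read-out.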
Sequence of Low molecular weight phosphotyrosine protein phosphatase (P24666 whole entry): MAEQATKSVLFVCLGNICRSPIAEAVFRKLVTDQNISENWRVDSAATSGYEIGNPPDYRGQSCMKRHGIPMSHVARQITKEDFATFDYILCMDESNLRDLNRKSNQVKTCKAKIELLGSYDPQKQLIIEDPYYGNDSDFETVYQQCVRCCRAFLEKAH
The target in assay [3] is T2, ATP-dependent translocase ABCB1 (Homo sapiens, UniProt P08183). Description: inhibition of BCRP-mediated JC-1 efflux – Ig-MXP3 cells, flow cytometry, set 2, dose response (AID 504566).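 Also: flow cytometry median green fluorescence of retained JC-1 dye; potency of efflux pump inhibition measured as rising substrate retention.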 The assay is classed as functional. To be noted: read-out: EC50_MICROM_. For orientation: In flow cytometry, cells or beads pass a laser one at a time.
T2 sequence (P08183 whole entry): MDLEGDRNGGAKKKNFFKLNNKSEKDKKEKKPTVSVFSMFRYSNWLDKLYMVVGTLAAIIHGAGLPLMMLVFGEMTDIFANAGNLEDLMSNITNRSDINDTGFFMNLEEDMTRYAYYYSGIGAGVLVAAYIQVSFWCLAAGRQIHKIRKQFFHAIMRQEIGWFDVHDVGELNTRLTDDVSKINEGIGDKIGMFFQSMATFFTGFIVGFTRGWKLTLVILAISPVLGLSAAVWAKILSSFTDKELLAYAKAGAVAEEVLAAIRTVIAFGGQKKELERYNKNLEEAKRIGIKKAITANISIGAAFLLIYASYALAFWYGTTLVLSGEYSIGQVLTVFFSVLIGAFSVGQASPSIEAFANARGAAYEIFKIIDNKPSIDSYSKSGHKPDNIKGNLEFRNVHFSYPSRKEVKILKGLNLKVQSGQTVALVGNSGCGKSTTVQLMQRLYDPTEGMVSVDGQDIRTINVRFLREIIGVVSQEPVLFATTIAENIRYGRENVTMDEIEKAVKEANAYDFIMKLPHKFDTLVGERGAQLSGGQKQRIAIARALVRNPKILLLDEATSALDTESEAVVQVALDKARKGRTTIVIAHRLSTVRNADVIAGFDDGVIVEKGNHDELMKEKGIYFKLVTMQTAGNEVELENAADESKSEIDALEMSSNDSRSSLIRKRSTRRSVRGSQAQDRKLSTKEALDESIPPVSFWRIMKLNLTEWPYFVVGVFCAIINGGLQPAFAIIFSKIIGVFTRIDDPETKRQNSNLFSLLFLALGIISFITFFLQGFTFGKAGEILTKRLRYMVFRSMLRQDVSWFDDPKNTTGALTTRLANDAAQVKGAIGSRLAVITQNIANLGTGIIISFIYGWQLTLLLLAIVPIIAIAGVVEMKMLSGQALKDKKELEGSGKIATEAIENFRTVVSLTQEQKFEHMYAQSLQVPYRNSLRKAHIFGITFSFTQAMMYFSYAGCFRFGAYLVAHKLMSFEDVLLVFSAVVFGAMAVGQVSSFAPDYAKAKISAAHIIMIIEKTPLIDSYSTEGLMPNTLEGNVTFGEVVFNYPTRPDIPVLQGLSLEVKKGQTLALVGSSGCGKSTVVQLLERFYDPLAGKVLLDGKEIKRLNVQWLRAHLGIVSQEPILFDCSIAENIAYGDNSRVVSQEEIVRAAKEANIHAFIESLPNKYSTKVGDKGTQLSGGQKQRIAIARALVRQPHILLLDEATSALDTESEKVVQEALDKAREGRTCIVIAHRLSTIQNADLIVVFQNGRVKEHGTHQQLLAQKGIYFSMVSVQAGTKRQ
Assay [4] addresses T2, ATP-dependent translocase ABCB1. As to the kind of experiment: P-gp JC-1 efflux blockade concentration-response – Jurkat-DNR cells, flow cytometry, set 2, dose response (AID 504569).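 Also: potency of pump inhibitors that raise cellular JC-1 green fluorescence up to the nicardipine level.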 The assay is classed as functional. The settings on record: read-out: EC50_MICROM_.
The next assay has as its target Steroidogenic factor 1 (Homo sapiens, UniProt Q13285). Description: Counterscreen for inverse agonists of the liver receptor homolog-1 (LRH-1; NR5A2): Luminescence-based cell-based high throughput dose response assay to identify inverse agonists of the Steroidogenic Factor 1 Nuclear Receptor (SF1; NR5A1). The format is functional. A general note: A counterscreen serves to expose hits that act by an unwanted route or on another target.

For assay [5], the target named is Nuclear receptor subfamily 5 group A member 2 (Homo sapiens, UniProt O00482). The assay is classed as functional, cell-based.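 Also: HEK293T cells transfected with LRH-1 and a StAR promoter luciferase reporter; potency for inhibitors that lower LRH-1 driven reporter light.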
Sequence of Nuclear receptor subfamily 5 group A member 2 (O00482 whole entry): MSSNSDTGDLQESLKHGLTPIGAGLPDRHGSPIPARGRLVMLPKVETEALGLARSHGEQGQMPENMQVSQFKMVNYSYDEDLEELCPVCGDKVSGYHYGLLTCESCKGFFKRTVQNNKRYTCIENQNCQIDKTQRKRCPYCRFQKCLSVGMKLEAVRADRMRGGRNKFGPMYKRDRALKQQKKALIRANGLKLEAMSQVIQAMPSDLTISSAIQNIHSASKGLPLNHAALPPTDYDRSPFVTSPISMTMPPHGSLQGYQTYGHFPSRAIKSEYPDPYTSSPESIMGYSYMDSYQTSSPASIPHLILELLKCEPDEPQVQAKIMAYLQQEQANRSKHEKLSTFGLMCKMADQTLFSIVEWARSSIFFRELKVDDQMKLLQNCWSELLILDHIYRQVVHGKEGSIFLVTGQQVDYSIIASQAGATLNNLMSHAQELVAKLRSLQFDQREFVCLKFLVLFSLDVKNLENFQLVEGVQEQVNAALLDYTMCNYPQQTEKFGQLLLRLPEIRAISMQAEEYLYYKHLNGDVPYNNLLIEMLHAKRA
Assay [6] in a line: nonselective StAR promoter luciferase inhibitors – cell-based, luminescence, luciferase reporter, counter-screen for LRH-1 inverse agonist project, dose response (AID 651969). The assay is classed as functional.
Assay [7] deals with T3, Sentrin-specific protease 1 (Homo sapiens, UniProt Q9P0U3). Description: SENP1 catalytic domain blockers, concentration series – biochemical, kinetic FRET, dose response (AID 651697). The format is functional. To be noted: read-out: IC50_Mean.
T3 sequence (Q9P0U3 whole entry, the tested form may be a part): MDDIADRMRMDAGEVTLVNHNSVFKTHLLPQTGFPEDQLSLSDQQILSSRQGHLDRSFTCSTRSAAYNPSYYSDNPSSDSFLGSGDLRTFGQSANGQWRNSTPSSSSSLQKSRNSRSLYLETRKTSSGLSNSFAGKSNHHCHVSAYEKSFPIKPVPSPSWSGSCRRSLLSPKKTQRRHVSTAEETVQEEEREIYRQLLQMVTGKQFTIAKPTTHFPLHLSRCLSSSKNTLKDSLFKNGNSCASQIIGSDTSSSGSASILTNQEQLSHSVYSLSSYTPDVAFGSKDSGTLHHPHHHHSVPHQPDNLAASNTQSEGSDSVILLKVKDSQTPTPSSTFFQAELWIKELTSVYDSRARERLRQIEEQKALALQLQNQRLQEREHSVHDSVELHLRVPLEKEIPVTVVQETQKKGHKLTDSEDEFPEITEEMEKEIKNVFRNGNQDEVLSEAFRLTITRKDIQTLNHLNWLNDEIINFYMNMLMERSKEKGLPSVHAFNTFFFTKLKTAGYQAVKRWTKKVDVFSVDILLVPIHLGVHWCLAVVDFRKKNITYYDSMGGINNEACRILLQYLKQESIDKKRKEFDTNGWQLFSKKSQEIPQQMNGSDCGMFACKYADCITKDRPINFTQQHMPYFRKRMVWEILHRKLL
Assay [8] deals with T4, Heat shock factor protein 1 (Mus musculus, UniProt P38532).
T4 sequence (P38532 whole entry): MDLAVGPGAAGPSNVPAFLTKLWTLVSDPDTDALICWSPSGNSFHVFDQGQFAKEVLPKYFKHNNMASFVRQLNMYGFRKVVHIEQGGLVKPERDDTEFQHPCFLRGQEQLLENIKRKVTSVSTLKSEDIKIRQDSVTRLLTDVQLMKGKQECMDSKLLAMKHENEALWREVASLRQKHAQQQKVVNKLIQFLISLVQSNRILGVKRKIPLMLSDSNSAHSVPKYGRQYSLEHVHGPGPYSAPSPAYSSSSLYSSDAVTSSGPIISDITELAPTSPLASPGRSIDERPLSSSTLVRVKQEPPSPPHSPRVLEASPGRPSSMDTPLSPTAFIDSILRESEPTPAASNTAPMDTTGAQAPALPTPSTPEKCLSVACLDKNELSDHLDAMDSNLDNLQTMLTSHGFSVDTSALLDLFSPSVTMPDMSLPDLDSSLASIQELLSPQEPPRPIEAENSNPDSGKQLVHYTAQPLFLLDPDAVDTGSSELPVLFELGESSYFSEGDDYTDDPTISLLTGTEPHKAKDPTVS
Description: enhancement of HSF1-driven luciferase signal – cell-based, NIH3T3, luminescence, dose retest, confirmation (AID 435004).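 Also: stress induced by proteasome inhibitor MG132 added 30 min after compound; luciferase reporter driven by HSF1 response element in NIH3T3 cells; actives raise luminescence as potentiators of the MG132 stress response.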 The format is functional.

Assay [9] concerns the target T3, Sentrin-specific protease 1. As to the kind of experiment: Dose response confirmation of small molecule inhibitors of the catalytic domain of the SUMO protease, SENP1 in a FRET assay. The assay is classed as functional. To be noted: read-out: IC50_Mean.
The nature of assay [10]: Counterscreen for inhibitors of Trypanosoma brucei methionyl tRNA synthetase (MetRS): Luminescence-based cell-based high throughput dose response assay to identify compounds that are cytotoxic to Jurkat human T lymphocyte cells. The assay is classed as functional.
Assay [11] deals with T5, Methionyl-tRNA synthetase, putative (Trypanosoma brucei brucei, UniProt Q38C91).
T5 sequence (Q38C91 whole entry): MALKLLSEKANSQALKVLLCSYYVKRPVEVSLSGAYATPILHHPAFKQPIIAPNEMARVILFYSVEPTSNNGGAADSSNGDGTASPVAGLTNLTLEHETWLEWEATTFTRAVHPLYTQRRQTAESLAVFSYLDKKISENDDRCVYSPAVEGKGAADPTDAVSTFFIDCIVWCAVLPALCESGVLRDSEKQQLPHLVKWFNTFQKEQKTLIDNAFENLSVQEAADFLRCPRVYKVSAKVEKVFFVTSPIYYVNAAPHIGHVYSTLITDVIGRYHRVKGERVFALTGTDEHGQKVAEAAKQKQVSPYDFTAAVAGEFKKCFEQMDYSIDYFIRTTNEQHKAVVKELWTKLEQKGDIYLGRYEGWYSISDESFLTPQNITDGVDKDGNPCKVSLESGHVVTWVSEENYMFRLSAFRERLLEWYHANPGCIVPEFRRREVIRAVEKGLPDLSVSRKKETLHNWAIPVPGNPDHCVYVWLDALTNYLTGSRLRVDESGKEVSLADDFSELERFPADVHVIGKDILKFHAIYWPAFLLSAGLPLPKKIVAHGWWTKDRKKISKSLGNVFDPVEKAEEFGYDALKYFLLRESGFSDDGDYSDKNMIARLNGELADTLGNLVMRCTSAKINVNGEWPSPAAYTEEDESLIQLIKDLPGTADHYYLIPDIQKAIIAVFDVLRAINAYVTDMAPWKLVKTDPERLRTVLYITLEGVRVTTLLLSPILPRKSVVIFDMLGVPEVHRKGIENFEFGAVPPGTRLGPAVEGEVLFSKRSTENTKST
The format is functional, Trypanosoma brucei brucei strain 927/4 GUTat10.1.

The target of assay [12] is T5, Methionyl-tRNA synthetase, putative. The format is functional, Trypanosoma brucei brucei strain 927/4 GUTat10.1. This is another data set of the same source.
The target of assay [13] is T6, Sentrin-specific protease 8 (Homo sapiens, UniProt Q96LD8).
T6 sequence (Q96LD8 whole entry): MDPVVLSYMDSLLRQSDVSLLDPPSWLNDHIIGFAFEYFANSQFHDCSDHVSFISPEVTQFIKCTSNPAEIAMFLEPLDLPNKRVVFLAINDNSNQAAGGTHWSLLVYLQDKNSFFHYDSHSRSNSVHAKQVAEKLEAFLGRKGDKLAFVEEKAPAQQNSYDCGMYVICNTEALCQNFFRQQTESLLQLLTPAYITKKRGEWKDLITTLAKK
The assay is classed as functional.

Assay [14] addresses T6, Sentrin-specific protease 8. The format is functional. This is another data set of the same source.

The source made the active and inactive calls.

Sequence of Steroidogenic factor 1 (Q13285 whole entry): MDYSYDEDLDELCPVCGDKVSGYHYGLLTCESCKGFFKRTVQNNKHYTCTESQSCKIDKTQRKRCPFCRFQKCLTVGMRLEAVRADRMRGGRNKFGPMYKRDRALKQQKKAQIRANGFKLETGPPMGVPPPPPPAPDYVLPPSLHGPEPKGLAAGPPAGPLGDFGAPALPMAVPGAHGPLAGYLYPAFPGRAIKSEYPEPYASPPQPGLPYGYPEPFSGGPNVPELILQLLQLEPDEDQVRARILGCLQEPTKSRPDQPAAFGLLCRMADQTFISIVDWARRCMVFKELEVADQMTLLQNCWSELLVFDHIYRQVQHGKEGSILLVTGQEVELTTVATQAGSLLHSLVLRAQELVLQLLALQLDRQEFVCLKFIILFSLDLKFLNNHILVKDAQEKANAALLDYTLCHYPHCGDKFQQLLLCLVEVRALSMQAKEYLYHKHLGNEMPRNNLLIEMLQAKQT

Take `NS(=O)(=O)c1ccc(CCNC(=O)c2ccc3nccnc3c2)cc1`: the results for the IC50 in assay [1] and in assay [2] were 54.2 µM (inactive) and 17.1 µM (active), respectively.

Turning to `COc1ccc(-c2cc(N3CCN(C(=O)c4ccoc4)CC3)n3nc(-c4cccc(Cl)c4)cc3n2)cc1`, the values for the EC50 in [3] and in assay [4] were 1.3 µM (active) and 4.86 µM (active), respectively.

Regarding `CCOc1ccc(NC(=O)CSc2nc(O)c3c[nH]nc3n2)cc1`, the IC50 on Steroidogenic factor 1 is 2.89 µM (active); in assay [5], 8.61 µM (active); in assay [6], 35.9 µM (inactive).

For `CSc1c(C#N)c(N)nc2sc(C(=O)c3ccccc3)c(N)c12`, the IC50 is 13.2 µM (active) in assay [7] and 13.8 µM (active) in [9]. Also, in [8], the EC50 was 95.5 µM (active).

Regarding `O=C(CCCOc1ccc(Cl)cc1Cl)N/N=C/c1ccccc1`, the IC50 is 83.3 µM (inactive) in assay [10], 110 µM (inactive) in assay [11] and 16 µM (inactive) in [12].

Take `CN1CCC2(CC1)N=C(c1ccc(F)cc1)C(=S)N2C(=O)c1ccccc1`: the IC50 is 28.6 µM (active) in assay [13] and > 100 µM (inactive) in assay [14].
